For this test, the system named is P388 leukemia ip, CD2F1 mice, survival T/C. Briefly: NCI In Vivo Anticancer Drug Screen. Data for tumor model P388 Leukemia (intraperitoneal) in CD2F1 (CDF1) mice. The note with it: endpoint: median survival time, higher = longer survival. A digest of the protocol: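 Mice carrying the transplanted tumor received test compound or vehicle. Survival was recorded in each group, and the value is the treated-group measurement divided by that of the vehicle-treated control group.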

Setting [1] is: dose: 200.0 mg/kg/injection, schedule: Q01DX001 (ip), vehicle: saline with Tween-80.
Where [2] appears, read: dose: 400.0 mg/kg/injection, schedule: Q01DX001 (ip), vehicle: saline with Tween-80.
Setting [3] is: dose: 100.0 mg/kg/injection, schedule: Q01DX001 (ip), vehicle: saline with Tween-80.
Setting [4] is: dose: 50.0 mg/kg/injection, schedule: Q01DX005 (ip), vehicle: Klucel (hydroxypropylcellulose) (HPC).
The mark [5] stands for this setting: dose: 100.0 mg/kg/injection, schedule: Q01DX005 (ip), vehicle: Klucel (hydroxypropylcellulose) (HPC).
The mark [6] stands for this setting: dose: 200.0 mg/kg/injection, schedule: Q01DX005 (ip), vehicle: Klucel (hydroxypropylcellulose) (HPC).
Setting [7] is: dose: 50.0 mg/kg/injection, schedule: Q01DX009 (ip), vehicle: saline.
The mark [8] stands for this setting: dose: 100.0 mg/kg/injection, schedule: Q01DX009 (ip), vehicle: saline.
[9] abbreviates: dose: 200.0 mg/kg/injection, schedule: Q01DX009 (ip), vehicle: saline.
Setting [10] is: dose: 60.0 mg/kg/injection, schedule: Q01DX005 (ip), vehicle: saline.
Setting [11] is: dose: 60.0 mg/kg/injection, schedule: Q01DX005 (ip), vehicle: saline with Tween-80.
Setting [12] is: dose: 120.0 mg/kg/injection, schedule: Q01DX005 (ip), vehicle: saline with Tween-80.
Setting [13] is: dose: 240.0 mg/kg/injection, schedule: Q01DX005 (ip), vehicle: saline with Tween-80.
[14] abbreviates: dose: 50.0 mg/kg/injection, schedule: Q01DX009 (ip), vehicle: saline with Tween-80.

Molecules are shown by their SMILES. Values joined by “and” are separate entries in the source; they are usually repeats but may differ in a detail not shown here. Equal values may be shown once. Inconclusive results and toxic doses are left out.

The values below come from PubChem BioAssay AID330 (DTP/NCI, 2004).

`COC(C(=O)C(OC(C)=O)C(C)OC(C)=O)C1Cc2cc3cc(OC4CC(OC5CC(OC(C)=O)C(OC(C)=O)C(C)O5)C(OC(C)=O)C(C)O4)c(C)c(OC(C)=O)c3c(OC(C)=O)c2C(=O)C1OC1CC(OC2CC(OC(C)=O)C(OC3CC(C)(OC(C)=O)C(OC(C)=O)C(C)O3)C(C)O2)C(OC(C)=O)C(C)O1` (stereo unspecified): the T/C runs as follows: (dose: 0.13 mg/kg/injection, schedule: Q01DX009 (ip), vehicle: water) 98 % of control; (dose: 0.25 mg/kg/injection, schedule: Q01DX009 (ip), vehicle: water) 99 % of control; (dose: 0.5 mg/kg/injection, schedule: Q01DX009 (ip), vehicle: water) 105 % of control; (dose: 1.0 mg/kg/injection, schedule: Q01DX009 (ip), vehicle: water) 105 % of control; (dose: 2.0 mg/kg/injection, schedule: Q01DX009 (ip), vehicle: water) 107 % of control; (dose: 4.0 mg/kg/injection, schedule: Q01DX009 (ip), vehicle: water) 111 % of control. For the same compound, the T/C (dose: 8.0 mg/kg/injection, schedule: Q01DX009 (ip), vehicle: water) was 114 % of control; the T/C (dose: 11.5 mg/kg/injection, schedule: Q01DX009 (ip), vehicle: water) was 106 % of control; the T/C (dose: 23.0 mg/kg/injection, schedule: Q01DX009 (ip), vehicle: water) is 108 % of control; the T/C (dose: 46.0 mg/kg/injection, schedule: Q01DX009 (ip), vehicle: water) was 115 % of control.
Regarding `Cc1cccc(N=Nc2c(-c3ccccc3)nn(C(=S)S)c2C)c1C`, the T/C (dose: 12.5 mg/kg/injection, schedule: Q01DX001 (ip), vehicle: saline with Tween-80) is 100 % of control; the T/C (dose: 25.0 mg/kg/injection, schedule: Q01DX001 (ip), vehicle: saline with Tween-80) was 96 % of control; the T/C (dose: 50.0 mg/kg/injection, schedule: Q01DX001 (ip), vehicle: saline with Tween-80) was 96 % of control; the T/C under setting [1] is 91 % of control; the T/C under setting [2] is 99 % of control.
For `Cn1ccn2cnnc2c1=O`, the T/C by setting is: under setting [3], 100 % of control; under setting [1], 106 % of control; under setting [2], 99 % of control.
Turning to `Oc1ccc(C2c3ccccc3Oc3ccccc32)c2cccnc12`, the T/C under setting [4] was 89 % of control, the T/C under setting [5] was 89 % of control and the T/C under setting [6] is 86 % of control.
With `O=C(c1ccccc1)c1c(-c2ccccc2)c(=O)n2c(sc3ccccc32)c1C(=O)c1ccccc1`, the T/C is, setting by setting: under setting [3], 93 % of control; under setting [1], 100 % of control; under setting [2], 109 % of control.
Regarding `Nc1ccc2cc(S(=O)(=O)O)c(N=Nc3ccc(-c4ccc(N=Nc5ccc(O)c(C(=O)O)c5)cc4)cc3)c(O)c2c1`, the T/C under setting [4] is 92 % of control, the T/C under setting [5] was 97 % of control and the T/C under setting [6] was 95 % of control.
With `CCO[Si](O[Si](OCC)(c1ccccc1)c1ccccc1)(c1ccccc1)c1ccccc1`, the T/C runs as follows: under setting [7], 93 % of control; under setting [8], 102 % of control; under setting [9], 91 % of control.
For the compound `CN(C)c1ccc(N2C(N)=NC(N)=NC2(C)C)cc1`, the T/C is, setting by setting: (dose: 15.0 mg/kg/injection, schedule: Q01DX005 (ip), vehicle: saline) 94 % of control; (dose: 30.0 mg/kg/injection, schedule: Q01DX005 (ip), vehicle: saline) 95 % of control; under setting [10], 98 % of control and 95 % of control.
Consider `CN(C)c1nc(-c2ccccc2)c(Cc2ccccc2)c(=O)o1`, for which the T/C is, setting by setting: under setting [11], 99 % of control; under setting [12], 92 % of control; under setting [13], 89 % of control.
For the compound `CCCOCCOCCOC(C)Oc1ccc(OC)cc1` (stereo unspecified), the T/C is, setting by setting: under setting [11], 105 % of control; under setting [12], 104 % of control; under setting [13], 104 % of control.
For the compound `C/C(=N\NC(=O)c1ccccc1O)c1cccc(/C(C)=N/NC(=O)c2ccccc2O)n1`, the T/C (dose: 3.12 mg/kg/injection, schedule: Q01DX009 (ip), vehicle: saline) was 110 % of control and the T/C (dose: 6.25 mg/kg/injection, schedule: Q01DX009 (ip), vehicle: saline) is 114 % of control.
Turning to `C/C=C(/C)C(=O)O[C@H]1CC[C@@]2(C)[C@@H]3CC[C@H]4[C@]5(O)C[C@H](O)[C@@]6(O)[C@@H](CN7C[C@@H](C)CC[C@H]7[C@@]6(C)O)[C@]5(O)C[C@@]42O[C@@]13O`, the T/C is 97 % of control (dose: 0.39 mg/kg/injection, schedule: Q01DX009 (ip), vehicle: saline with Tween-80); 95 % of control (dose: 0.5 mg/kg/injection, schedule: Q01DX009 (ip), vehicle: saline); 101 % of control (dose: 0.78 mg/kg/injection, schedule: Q01DX009 (ip), vehicle: saline with Tween-80); 109 % of control (dose: 1.0 mg/kg/injection, schedule: Q01DX009 (ip), vehicle: saline); 101 % of control (dose: 1.56 mg/kg/injection, schedule: Q01DX009 (ip), vehicle: saline with Tween-80); 109 % of control (dose: 2.0 mg/kg/injection, schedule: Q01DX009 (ip), vehicle: saline). The T/C by setting is: (dose: 3.12 mg/kg/injection, schedule: Q01DX009 (ip), vehicle: saline with Tween-80) 97 % of control; (dose: 6.25 mg/kg/injection, schedule: Q01DX009 (ip), vehicle: saline with Tween-80) 88 % of control.
Turning to `C=Cc1cc(OC)c2c(c1)c(=O)oc1c2cc(OC)c2c(O)ccc(C3OC(C)C(O)C(C)(O)C3O)c21` (stereo unspecified), the T/C by setting is: (dose: 1.56 mg/kg/injection, schedule: Q01DX005 (ip), vehicle: DMSO) 115 % of control; (dose: 3.12 mg/kg/injection, schedule: Q01DX005 (ip), vehicle: DMSO) 118 % of control; (dose: 12.5 mg/kg/injection, schedule: Q01DX005 (ip), vehicle: DMSO) 150 % of control; (dose: 25.0 mg/kg/injection, schedule: Q01DX005 (ip), vehicle: DMSO) 150 % of control; (dose: 50.0 mg/kg/injection, schedule: Q01DX005 (ip), vehicle: DMSO) 169 % of control.
On to `CCc1cc(C2C(=O)c3ccccc3C2=O)cc(CC)c1O`, for which the T/C is 107 % of control (dose: 100.0 mg/kg/injection, schedule: Q04DX002 (ip), vehicle: saline); 105 % of control (dose: 200.0 mg/kg/injection, schedule: Q04DX002 (ip), vehicle: saline); 110 % of control (dose: 400.0 mg/kg/injection, schedule: Q04DX002 (ip), vehicle: saline).
For the compound `O=C(CBr)N1c2ccccc2Sc2ccc3ccccc3c21`, the T/C was 110 % of control and 120 % of control (dose: 25.0 mg/kg/injection, schedule: Q01DX009 (ip), vehicle: saline with Tween-80); 122 % of control under setting [14].
With `CC(CN1c2ccccc2Sc2ccccc21)N(C)C` (stereo unspecified), the T/C is, setting by setting: (dose: 25.0 mg/kg/injection, schedule: Q01DX001 (ip), vehicle: saline) 99 % of control; (dose: 50.0 mg/kg/injection, schedule: Q01DX001 (ip), vehicle: saline) 101 % of control; (dose: 100.0 mg/kg/injection, schedule: Q01DX001 (ip), vehicle: saline) 95 % of control.
As for `CC1CCCCC1OC(=O)Nc1ccccc1` (stereo unspecified), the T/C was 105 % of control under setting [7], 101 % of control under setting [8] and 100 % of control under setting [9].
For `Cn1c(N)c(C(=O)C(F)(F)F)c(=O)n(C)c1=O`, the T/C was 99 % of control under setting [14]; 95 % of control (dose: 100.0 mg/kg/injection, schedule: Q01DX009 (ip), vehicle: saline with Tween-80); 95 % of control (dose: 200.0 mg/kg/injection, schedule: Q01DX009 (ip), vehicle: saline with Tween-80).
As to `COC(=O)C1(CC(=O)c2cccs2)NC(=S)NC(=O)C1C#N` (stereo unspecified), the T/C runs as follows: under setting [10], 98 % of control; (dose: 120.0 mg/kg/injection, schedule: Q01DX005 (ip), vehicle: saline) 100 % of control; (dose: 240.0 mg/kg/injection, schedule: Q01DX005 (ip), vehicle: saline) 94 % of control.
